According to PubChem BioAssay (NCI):
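Cultured in 96-well plates, cells were exposed to test compound for 48 hours across five concentrations. Definition used: TGI = concentration required for complete inhibition of growth.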

Experiments:
Assay in all cases: NCI-60 cell line screen, 48 h
KM20L2 colon = system: KM20L2 colon
SNB-78 CNS = system: SNB-78 CNS
DMS 273 small cell lung = system: DMS 273 small cell lung
XF 498 CNS = system: XF 498 CNS
M19-MEL melanoma = system: M19-MEL melanoma
DMS 114 small cell lung = system: DMS 114 small cell lung
HOP-18 NSCLC = system: HOP-18 NSCLC
DLD-1 colon = system: DLD-1 colon

Row | SMILES | TGI (KM20L2 colon) | TGI (SNB-78 CNS) | TGI (DMS 273 small cell lung) | TGI (XF 498 CNS) | TGI (M19-MEL melanoma) | TGI (DMS 114 small cell lung) | TGI (HOP-18 NSCLC) | TGI (DLD-1 colon)
1 | Cc1ccc(NC(=O)CSc2nnc(-c3ccc(N=Cc4ccc(Cl)cc4)cc3)o2)cc1 | > 100 µM | > 100 µM | > 100 µM | > 100 µM | > 100 µM | > 100 µM | > 100 µM | 
2 | CCC1CCc2c(c(=O)oc3c2cc(OC)c2cccc(OC)c23)C1 (stereo not given) | > 100 µM | > 100 µM | > 100 µM | 78.6 µM | > 100 µM |  | > 100 µM | > 100 µM
3 | S=c1[nH]c(=S)c2nnn(-c3ccccc3)c2[nH]1 | > 100 µM |  | > 100 µM | > 100 µM | > 100 µM | > 100 µM |  | > 100 µM
